Measured values as given in patent US20250066826A1, “ARTIFICIAL SYNTHESIS METHOD FOR MALONYL-COENZYME A (COA) AND USE THEREOF” (SHANGHAI JIAO TONG UNIVERSITY, priority 2023, published 2025).
Where two headings read alike, the source gives them in different places.

Experiments:
artificial NCM pathway = assay: Effect of inhibitors of natural synthesis pathways on the NCM in-vitro reaction system; format: biochemical
Protocol: It can be seen that the BauA has the best effect (FIG. 4A).
Natural PDH-ACC pathways are strictly regulated by many factors, such as high levels of intracellular ATP severely reducing the activity of PDH. When ADP/ATP=1, the activity of PDH is only 10% of that when ADP/ATP=20 (Hansford R G et al., 1976). Acetyl-CoA is also an inhibitor of PDH. When acetyl-CoA reaches 2 mM, the activity of PDH decreases by 70%. Long-chain fatty acyl-CoA, such as palmitoyl-CoA, is an inhibitor of ACC. […] palmitoyl-CoA can cause an 80% decrease in ACC activity. In the above NCM in-vitro reaction system, ATP and ADP (ATP+ADP=3.75 mM, ADP/ATP was +00, 10, 1, and 0.1, respectively) (FIG. 6A), acetyl-CoA (0, 0.5, 1, and 2 mM) (FIG. 6B), and palmitoyl-CoA ([…]) (FIG. 6C) were added, respectively.

PDH = conditions: cited from earlier work
[1] = system: E. coli MG1655 (DE3), pCDF-ACC (strain N); format: cell-based; conditions: ACC overexpressed strain; MOPS medium with 200 mM succinic acid, 10 mM triacetic acid lactone, 300 mM NaCl or 480 mM sucrose
Protocol: (§1) Seed culture: Monoclones of the MG1655 (DE3), pCDF-bauA-mcrC (strain L), monoclones of the MG1655 (DE3), pCDF-duet (strain M) and monoclones of the MG1655 (DE3), pCDF-ACC (strain N) were selected respectively to be inoculated into a 15 mL test tube containing 5 mL of an MOPS medium, the medium containing spectinomycin (a final concentration of 50 μg/mL). Culture was carried out at 220 r and 37° C. until the OD550 is around 1.5 to 1.8 to be used as a seed solution.
(§2) Medium used for tolerance testing: IPTG (a final concentration of 0.1 mM) and spectinomycin (a final concentration of 50 μg/mL) were added into an MOPS medium (containing […] glucose); then, inhibitors were added, and the selected inhibitors and final concentrations thereof were formic acid (100 mM), acetic acid (50 mM), caproic acid (10 mM), lactic acid (500 mM), succinic acid (200 mM), glucose (100 μg/L), sucrose (480 mM), octanoic acid (10 mM), citric acid (200 mM), vanillic acid (3 μg/L), and triacetic acid lactone (TAL, 1.25 μg/L).
(§3) The seed solution was inoculated at a ratio of initial OD550=0.1 into a medium for tolerance test. After inoculation was completed, shaking for even mixing was carried out. 200 μL of the same was pipetted to a 96-well plate. By using a continuous kinetic assay method, OD550 was determined every 10 minutes with a microplate reader (Biotek), to determine the growth curve of the strain. The specific growth rate […] can be obtained by calculation of the exponential growth phase OD550T, cultivation time T, and initial OD550O.

[2] = system: E. coli MG1655 (DE3), pCDF-bauA-mcrC (strain L); format: cell-based; conditions: for biomass (OD550): NCM pathway overexpressed strain, MOPS medium with 200 mM succinic acid, 10 mM triacetic acid lactone, 300 mM NaCl or 480 mM sucrose; for increase of biomass of NCM strain compared to the ACC overexpressed strain / increase of biomass of NCM strain compared to the reference strain: same stressor concentrations as OD550 values
Protocol: as §1, §2, §3

[3] = system: E. coli MG1655 (DE3), pCDF-duet (strain M); assay: Tolerance test, growth (OD550) of reference strain; format: cell-based; conditions: MOPS medium with 200 mM succinic acid, 10 mM triacetic acid lactone, 300 mM NaCl or 480 mM sucrose
Protocol: as §1, §2, §3

Structure (SMILES) | biomass (OD550) [1] | biomass (OD550) [2] | increase of biomass of NCM strain compared to the ACC overexpressed strain [2] [%] | increase of biomass of NCM strain compared to the reference strain [2] [%] | biomass (OD550) [3] | other results
Nc1ncnc2c1ncn2[C@@H]1O[C@H](COP(=O)(O)OP(=O)(O)OP(=O)(O)O)[C@@H](O)[C@H]1O [ATP] | – | – | – | – | – | inhibitory effect on the artificial NCM pathway (artificial NCM pathway; ATP+ADP=3.75 mM, ADP/ATP +00, 10, 1 and 0.1): no inhibitory effect; decrease in PDH activity (PDH; ADP/ATP equal to 1): 90%; activity of PDH relative to that when ADP/ATP=20 (PDH; ADP/ATP=1): 10%
[Cl-].[Na+] [NaCl] | 0.24 | 0.76 | 214 | 29 | 0.59 | –
CC(=O)SCCNC(=O)CCNC(=O)[C@H](O)C(C)(C)COP(=O)(O)OP(=O)(O)OC[C@H]1O[C@@H](n2cnc3c(N)ncnc32)[C@H](O)[C@@H]1OP(=O)(O)O [acetyl-CoA] | – | – | – | – | – | inhibitory effect on the artificial NCM pathway (artificial NCM pathway; acetyl-CoA 0, 0.5, 1 and 2 mM): no inhibitory effect; decrease in PDH activity (PDH; 2 mM acetyl-CoA): 70%
CCCCCCCCCCCCCCCC(=O)SCCNC(=O)CCNC(=O)[C@H](O)C(C)(C)COP(=O)(O)OP(=O)(O)OC[C@H]1O[C@@H](n2cnc3c(N)ncnc32)[C@H](O)[C@@H]1OP(=O)(O)O [palmitoyl-CoA] | – | – | – | – | – | inhibitory effect on the artificial NCM pathway (artificial NCM pathway; palmitoyl-CoA 0, 0.24, 0.48, 0.96, 2.4 and 24 M): no inhibitory effect
O=C(O)CCC(=O)O [succinic acid] | 0.20 | 0.60 | – | 100 | 0.30 | –
OC[C@H]1O[C@@](CO)(O[C@H]2O[C@H](CO)[C@@H](O)[C@H](O)[C@H]2O)[C@@H](O)[C@@H]1O [sucrose] | 0.23 | 0.96 | 320 | 26 | 0.77 | –
Cc1cc(O)cc(=O)o1 [triacetic acid lactone] | 0.29 | 0.81 | 180 | 30 | 0.62 | –
